Test results as given in patent US20210024542A1 (Torcept Therapeutics, Inc., priority 2018, published 2021).
Where two headings read alike, the source gives them in different places.

Experiments:
SK-UT-1 = experiment: OncoPanel cell proliferation assay, SK-UT-1; details: for Relative cell count (%) Mean: SK-UT-1
Method: Cells were seeded into 384-well plates and incubated in a humidified atmosphere of 5% CO2 at 37° C. Compounds were added the day following cell seeding. At the same time, a time zero untreated cell plate was generated. After a 3-day incubation period, cells were fixed and stained to allow fluorescence imaging of nuclei. Compounds (1 mM stock solutions) were serially diluted in half-log steps from the highest test concentration (1 micromol), and assayed over 10 concentrations with a maximum assay concentration of 0.1% DMSO. Automated fluorescence microscopy was carried out using a Molecular Devices ImageXpress Micro XL high-content imager, and images were collected with a 4× objective. 16-bit TIFF images were acquired and analyzed with MetaXpress 5.1.0.41 software.
GI50 is the concentration needed to reduce the observed growth by half (midway between the curve maximum and the time zero value). […] In rare instances, values <0 or >10 may be observed. […] Curve-fitting, calculations, and report generation was performed using a custom data reduction engine and MathIQ based software (AIM).

Hs 852.T = experiment: OncoPanel cell proliferation assay, Hs 852.T; format: cell-based, human
Method: (§1) Cells were grown in RPMI 1640, 10% FBS, 2 mM L-alanyl-L-glutamine, 1 mM Na pyruvate, or a special medium. Cells were seeded into 384-well plates and incubated in a humidified atmosphere of 5% CO2 at 37° C. Compounds were added the day following cell seeding. At the same time, a time zero untreated cell plate was generated. After a 3-day incubation period, cells were fixed and stained to allow fluorescence imaging of nuclei. Compounds (1 mM stock solutions) were serially diluted in half-log steps from the highest test concentration ([…]), and assayed over 10 concentrations with a maximum assay concentration of 0.1% DMSO. Automated fluorescence microscopy was carried out using a Molecular Devices ImageXpress Micro XL high-content imager, and images were collected with a 4× objective. 16-bit TIFF images were acquired and analyzed with MetaXpress 5.1.0.41 software.
(§2) Cell proliferation was measured by the fluorescence intensity of an incorporated nuclear dye. The output is referred to as the relative cell count, where the measured nuclear intensity is transformed to percent of control (POC) using the following formula: […]
(§3) Cellular response parameters were calculated using nonlinear regression to a sigmoidal single-site dose response model:
(§4) Where y is a response measured at concentration x, A and B are the lower and upper limits of the response, C is the concentration at the response midpoint (EC50), and D is the Hill Slope (Ref. 1).
(§5) EC50 is the test compound concentration at the curve inflection point or half the effective response (parameter C of the fitted curve solution). GI50 is the concentration needed to reduce the observed growth by half (midway between the curve maximum and the time zero value). “Cell Count Activity Area” is an estimate of the integrated area above the curve (Barretina, et al. The Cancer Cell Line Encyclopedia enables predictive modelling of anticancer drug sensitivity. Nature 483: 603-607). […] In rare instances, values <0 or >10 may be observed. […] Curve-fitting, calculations, and report generation was performed using a custom data reduction engine and MathIQ based software (AIM).

A431 = experiment: OncoPanel cell proliferation assay, A431; format: cell-based, human; details: for Relative cell count (%) Mean: A431
Method: as §1, §2, §3, §4, §5

786-O = experiment: OncoPanel cell proliferation assay, 786-O; format: cell-based, human; details: for Relative cell count (%) Mean: 786-0
Method: as §1, §2, §3, §4, §5

SK-MEL-28 = experiment: OncoPanel cell proliferation assay, SK-MEL-28; format: cell-based, human; details: for Relative cell count (%) Mean: SK-MEL-28
Method: as §1, §2, §3, §4, §5

G-402 = experiment: OncoPanel cell proliferation assay, G-402; format: cell-based, human; details: for Relative cell count (%) Mean: G-402
Method: as §1, §2, §3, §4, §5

`CO[C@H]1C[C@@H]2CC[C@@H](C)[C@@](O)(O2)C(=O)C(=O)N2CCCC[C@H]2C(=O)O[C@H]([C@H](C)C[C@@H]2C[C@@H]3C[C@H]2C[C@H]3O)CC(=O)[C@H](C)/C=C(\C)[C@@H](O)[C@@H](OC)C(=O)[C@H](C)C[C@H](C)/C=C/C=C/C=C/1C` [Formula I, 37R-hydroxynorbornylrapamycin] was tested, and the EC50 (SK-UT-1; Homo sapiens, SK-UT-1, 72 h, read-out: Cell Count EC50) was 0.284 nM, the GI50 (SK-UT-1; Homo sapiens, SK-UT-1, 72 h, read-out: Cell Count GI50) was 2.01 nM and the IC50 (SK-UT-1; Homo sapiens, SK-UT-1, 72 h, read-out: Cell Count IC50) was 11.7 nM. For the same compound, the “Cell Count Activity Area” value (SK-UT-1; SK-UT-1, scale 0-10) was 3.95, the “Relative cell count (%) Mean” value (SK-UT-1; 1.00E+00 microM) was 50.0% and the “Relative cell count (%) Mean” value (SK-UT-1; 1.00E−01 microM) was 57.6%. The “Relative cell count (%) Mean” value (SK-UT-1; 1.00E−02 microM) was 52.2%, the “Relative cell count (%) Mean” value (SK-UT-1; 1.00E−03 microM) was 72.8% and the “Relative cell count (%) Mean” value (SK-UT-1; 1.01E−04 microM) was 94.8%. The “Relative cell count (%) Mean” value (SK-UT-1; 3.16E−01 microM) was 48.7%, the “Relative cell count (%) Mean” value (SK-UT-1; 3.17E−02 microM) was 53.1% and the “Relative cell count (%) Mean” value (SK-UT-1; 3.17E−03 microM) was 57.1%. For the same compound, the “Relative cell count (%) Mean” value (SK-UT-1; 3.18E−04 microM) was 72.6%, the “Relative cell count (%) Mean” value (SK-UT-1; 3.18E−05 microM) was 98.4% and the “Relative cell count (%) Mean” value (Hs 852.T; 1.00E+00 microM) was 67.7%. For the same compound, the “Relative cell count (%) Mean” value (Hs 852.T; 1.00E−01 microM) was 82.5%, the “Relative cell count (%) Mean” value (Hs 852.T; 1.00E−02 microM) was 92.9% and the “Relative cell count (%) Mean” value (Hs 852.T; 1.00E−03 microM) was 96.5%. The “Relative cell count (%) Mean” value (Hs 852.T; 1.01E−04 microM) was 106.1%, the “Relative cell count (%) Mean” value (Hs 852.T; 3.16E−01 microM) was 78.0% and the “Relative cell count (%) Mean” value (Hs 852.T; 3.17E−02 microM) was 87.7%. For the same compound, the “Relative cell count (%) Mean” value (Hs 852.T; 3.17E−03 microM) was 100.5%, the “Relative cell count (%) Mean” value (Hs 852.T; 3.18E−04 microM) was 105.1% and the “Relative cell count (%) Mean” value (Hs 852.T; 3.18E−05 microM) was 99.0%. For the same compound, the EC50 (Hs 852.T; Homo sapiens, 72 h, 3-day incubation, read-out: Cell Count EC50) was 335 nM, the GI50 (Hs 852.T; Homo sapiens, 72 h, 3-day incubation, read-out: Cell Count GI50) was 803 nM and the IC50 (Hs 852.T; Homo sapiens, 72 h, 3-day incubation, read-out: Cell Count IC50) was > 1000 nM. The “Cell Count Activity Area” value (Hs 852.T; scale 0-10) was 1.22, the “Cell Count Activity Area” value (A431; A431, scale 0-10) was 1.96 and the “Relative cell count (%) Mean” value (A431; 1.00E+00 microM) was 64.2%. The “Relative cell count (%) Mean” value (A431; 1.00E−01 microM) was 72.8%, the “Relative cell count (%) Mean” value (A431; 1.00E−02 microM) was 84.2% and the “Relative cell count (%) Mean” value (A431; 1.00E−03 microM) was 93.5%. The “Relative cell count (%) Mean” value (A431; 1.01E−04 microM) was 101.0%, the “Relative cell count (%) Mean” value (A431; 3.16E−01 microM) was 66.5% and the “Relative cell count (%) Mean” value (A431; 3.17E−02 microM) was 78.2%. For the same compound, the “Relative cell count (%) Mean” value (A431; 3.17E−03 microM) was 84.4%, the “Relative cell count (%) Mean” value (A431; 3.18E−04 microM) was 91.9% and the “Relative cell count (%) Mean” value (A431; 3.18E−05 microM) was 104.6%. For the same compound, the EC50 (A431; Homo sapiens, A-431, 72 h, A431, 3-day incubation, read-out: Cell Count EC50) was 14.3 nM, the GI50 (A431; Homo sapiens, A-431, 72 h, A431, 3-day incubation, read-out: Cell Count GI50) was > 1000 nM and the IC50 (A431; Homo sapiens, A-431, 72 h, A431, 3-day incubation, read-out: Cell Count IC50) was > 1000 nM. For the same compound, the EC50 (A431; Homo sapiens, A-431, Table 4 summary, A431, Skin, Head/Neck, read-out: EC50) was 14 nM, the “Relative cell count (%) Mean” value (786-O; 1.00E+00 microM) was 37.4% and the “Relative cell count (%) Mean” value (786-O; 1.00E−01 microM) was 44.8%. The “Relative cell count (%) Mean” value (786-O; 1.00E−02 microM) was 52.1%, the “Relative cell count (%) Mean” value (786-O; 1.00E−03 microM) was 61.1% and the “Relative cell count (%) Mean” value (786-O; 1.01E−04 microM) was 88.5%. The “Relative cell count (%) Mean” value (786-O; 3.16E−01 microM) was 43.9%, the “Relative cell count (%) Mean” value (786-O; 3.17E−02 microM) was 46.5% and the “Relative cell count (%) Mean” value (786-O; 3.17E−03 microM) was 60.0%. For the same compound, the “Relative cell count (%) Mean” value (786-O; 3.18E−04 microM) was 77.4%, the “Relative cell count (%) Mean” value (786-O; 3.18E−05 microM) was 100.6% and the “Cell Count Activity Area” value (786-O; 786-O, scale 0-10) was 4.43. It also gave an EC50 (786-O; Homo sapiens, 786-0, 72 h, 786-O, 3-day incubation, read-out: Cell Count EC50) of 0.395 nM, a GI50 (786-O; Homo sapiens, 786-0, 72 h, 786-O, 3-day incubation, read-out: Cell Count GI50) of 1.91 nM and an IC50 (786-O; Homo sapiens, 786-0, 72 h, 786-O, 3-day incubation, read-out: Cell Count IC50) of 4.07 nM. For the same compound, the EC50 (SK-MEL-28; Homo sapiens, 72 h, SK-MEL-28, 3-day incubation, read-out: Cell Count EC50) was 0.194 nM, the GI50 (SK-MEL-28; Homo sapiens, 72 h, SK-MEL-28, 3-day incubation, read-out: Cell Count GI50) was > 1000 nM and the IC50 (SK-MEL-28; Homo sapiens, 72 h, SK-MEL-28, 3-day incubation, read-out: Cell Count IC50) was > 1000 nM. For the same compound, the EC50 (SK-MEL-28; Homo sapiens, Table 4 summary, SK-MEL-28, Melanoma, read-out: EC50) was 0.19 nM, the “Cell Count Activity Area” value (SK-MEL-28; SK-MEL-28, scale 0-10) was 1.87 and the “Relative cell count (%) Mean” value (SK-MEL-28; 1.00E−01 microM) was 65.6%. For the same compound, the “Relative cell count (%) Mean” value (SK-MEL-28; 1.00E−02 microM) was 71.4%, the “Relative cell count (%) Mean” value (SK-MEL-28; 1.00E−03 microM) was 75.0% and the “Relative cell count (%) Mean” value (SK-MEL-28; 1.01E−04 microM) was 88.2%. The “Relative cell count (%) Mean” value (SK-MEL-28; 3.17E−02 microM) was 68.9%, the “Relative cell count (%) Mean” value (SK-MEL-28; 3.17E−03 microM) was 70.8% and the “Relative cell count (%) Mean” value (SK-MEL-28; 3.18E−04 microM) was 79.6%. For the same compound, the “Relative cell count (%) Mean” value (SK-MEL-28; 3.18E−05 microM) was 93.8%, the “Cell Count Activity Area” value (G-402; G-402, scale 0-10) was 4.95 and the “Relative cell count (%) Mean” value (G-402; 1.00E+00 microM) was 31.5%. For the same compound, the “Relative cell count (%) Mean” value (G-402; 1.00E−01 microM) was 37.2%, the “Relative cell count (%) Mean” value (G-402; 1.00E−02 microM) was 41.4% and the “Relative cell count (%) Mean” value (G-402; 1.00E−03 microM) was 49.2%. For the same compound, the “Relative cell count (%) Mean” value (G-402; 1.01E−04 microM) was 70.9%, the “Relative cell count (%) Mean” value (G-402; 3.16E−01 microM) was 34.9% and the “Relative cell count (%) Mean” value (G-402; 3.17E−02 microM) was 46.6%. For the same compound, the “Relative cell count (%) Mean” value (G-402; 3.17E−03 microM) was 48.8%, the “Relative cell count (%) Mean” value (G-402; 3.18E−04 microM) was 54.9% and the “Relative cell count (%) Mean” value (G-402; 3.18E−05 microM) was 89.9%. It also gave an EC50 (G-402; Homo sapiens, 72 h, G-402, 3-day incubation, read-out: Cell Count EC50) of 0.133 nM, a GI50 (G-402; Homo sapiens, 72 h, G-402, 3-day incubation, read-out: Cell Count GI50) of 0.332 nM and an IC50 (G-402; Homo sapiens, 72 h, G-402, 3-day incubation, read-out: Cell Count IC50) of 0.956 nM.
